# Measured values taken from patent US9938562B2, “Naphthalene derived chromogenic enzyme substrates” (Glycosynth Limited, priority 2013, dated 2018).
# Like-named read-outs stand apart in the source and are kept apart here.
# Tests used:
# [1] = test system: Escherichia coli NCTC 10418; experiment: Agar plate multi-point inoculation, colour; format: cell-based
# [2] = test system: Klebsiella pneumoniae NCTC 9528; experiment: Agar plate multi-point inoculation, colour; format: cell-based
# [3] = test system: Providencia rettgeri NCTC 7475; experiment: Agar plate multi-point inoculation, colour; format: cell-based
# [4] = test system: Enterobacter cloacae NCTC 11936; experiment: Agar plate multi-point inoculation, colour; format: cell-based
# [5] = test system: Serratia marcescens NCTC 10211; experiment: Agar plate multi-point inoculation, colour; format: cell-based
# [6] = test system: Salmonella typhimurium NCTC 74; experiment: Agar plate multi-point inoculation, colour; format: cell-based
# [7] = test system: Pseudomonas aeruginosa NCTC 10662; experiment: Agar plate multi-point inoculation, colour; format: cell-based
# [8] = test system: Yersinia enterocolitica NCTC 11176; experiment: Agar plate multi-point inoculation, colour; format: cell-based; details: Columbia agar, FAC 500 mg/L, substrate 300 mg/L, 37° C. 18 h in air
# [9] = test system: Burkholderia cepacia NCTC 10931; experiment: Agar plate multi-point inoculation, colour; format: cell-based; details: Columbia agar, FAC 500 mg/L, substrate 300 mg/L, 37° C. 18 h in air
# [10] = test system: Acinetobacter baumannii NCTC 19606; experiment: Agar plate multi-point inoculation, colour; format: cell-based
# [11] = test system: Steptococcus pyogenes NCTC 8306; experiment: Agar plate multi-point inoculation, colour; format: cell-based
# [12] = test system: Staphylococcus aureus (MRSA) NCTC 11939; experiment: Agar plate multi-point inoculation, colour; format: cell-based; details: Columbia agar, FAC 500 mg/L, substrate 300 mg/L, 37° C. 18 h in air
# [13] = test system: Staphylococcus aureus NCTC 6571; experiment: Agar plate multi-point inoculation, colour; format: cell-based
# [14] = test system: Staphylococcus epidermidis NCTC 11047; experiment: Agar plate multi-point inoculation, colour; format: cell-based
# [15] = test system: Listeria monocytogenes NCTC 11994; experiment: Agar plate multi-point inoculation, colour; format: cell-based
# [16] = test system: Enterococcus faecium NCTC 7171; experiment: Agar plate multi-point inoculation, colour; format: cell-based
# [17] = test system: Enterococcus faecalis NCTC 775; experiment: Agar plate multi-point inoculation, colour; format: cell-based
# [18] = test system: Bacillus subtilis NCTC 9372; experiment: Agar plate multi-point inoculation, colour; format: cell-based
# [19] = test system: Candida albicans ATCC 90028; format: cell-based
# [20] = test system: Candida glabrata NCPF 3943; experiment: Agar plate multi-point inoculation, colour; format: cell-based
# range of microorganisms = experiment: Agar plate evaluation with a range of microorganisms (hue, diffusion, background); format: cell-based; details: agar plates with FAC
# [21] = test system: clinical isolates of E. coli; experiment: Glucuronide sensitivity screen, agar plates (CPS ID 3 or Columbia agar); format: cell-based
# E. cloacae = experiment: Glucuronide screen, agar plates (CPS ID 3 or Columbia agar); format: cell-based
# E. faecium NCTC 7171 = experiment: as above; format: cell-based; details: E. faecium NCTC 7171, agar
# E. faecalis NCTC 775 = experiment: as above; format: cell-based; details: E. faecalis NCTC 775, agar
# [22] = test system: β-D-glucuronidase-positive strains; experiment: Hydrolysis by glucuronidase-positive strains; format: cell-based
# [23] = 100 E. coli strains, agar, 18 h incubation
molecule,measurement,setting,value
DHN-6-sulfonic acid-β-D-galactopyranoside sodium salt [Compound 31],Colour,[1],+
same,Colour,[2],−
same,Colour,[3],+
same,Colour,[4],+
same,Colour,[5],−
same,Colour,[6],−
same,Colour,[7],−
same,Colour,[8],−
same,Colour,[9],−
same,Colour,[10],−
same,Colour,[11],−
same,Colour,[12],−
same,Colour,[13],−
same,Colour,[14],−
same,Colour,[15],−
same,Colour,[16],−
same,Colour,[17],−
same,Colour,[18],−
same,Colour,[19],−
same,Colour,[20],−
same,colour (hue) after hydrolysis,range of microorganisms,purple to maroon colonies
same,amount dissolved in water,,30 mg
NC1CCCCC1.O=C(O)[C@H]1O[C@@H](Oc2c[nH]c3ccc(Br)c(Cl)c23)[C@H](O)[C@@H](O)[C@@H]1O [X-β-D-glucuronide CHA salt],% Sensitivity,[21],79%
same,Colour,[21],−
same,Negative strains,[21]; [23],21
same,Positive strains,[21]; [23],79
same,Colour,"[21]; E. coli 260262P, agar",Green
same,Colour,"[21]; E. coli 260280Z, agar",Green
same,Colour,"[21]; E. coli 260310H, agar",Green
same,Colour,"[21]; E. coli 260313A, agar",−
same,Colour,"[21]; E. coli 260316T, agar",−
same,Colour,"[21]; E. coli 260327V, agar",Green
same,Colour,"[21]; E. coli 260330Y, agar",Green
same,Colour,"[21]; E. coli 260333P, agar",−
same,Colour,"[21]; E. coli 260345F, agar",Green
same,Colour,"[21]; E. coli 260348K, agar",Green
same,Colour,"[21]; E. coli 260354W, agar",Green
same,Colour,"[21]; E. coli 260364H, agar",−
same,Colour,"[21]; E. coli 260370C, agar",Green
same,Colour,"[21]; E. coli 260375E, agar",Green
same,Colour,"[21]; E. coli 260390B, agar",−
same,Colour,"[21]; E. coli 260396Z, agar",Green
same,Colour,"[21]; E. coli 260398Q, agar",Green
same,Colour,"[21]; E. coli 260399E, agar",Green
same,Colour,"[21]; E. coli 260400N, agar",−
same,Colour,"[21]; E. coli 260401Q, agar",Green
same,Colour,"[21]; E. coli 260402H, agar",Green
same,Colour,"[21]; E. coli 260404W, agar",Green
same,Colour,"[21]; E. coli 260405P, agar",Green
same,Colour,"[21]; E. coli 260406A, agar",−
same,Colour,"[21]; E. coli 260406Y, agar",Green
same,Colour,"[21]; E. coli 260407F, agar",Green
same,Colour,"[21]; E. coli 260408C, agar",Green
same,Colour,"[21]; E. coli 260411Z, agar",Green
same,Colour,"[21]; E. coli 260412Q, agar",Green
same,Colour,"[21]; E. coli 260414H, agar",Green
same,Colour,"[21]; E. coli 260415Y, agar",Green
same,Colour,"[21]; E. coli 260416W, agar",−
same,Colour,"[21]; E. coli 260417P, agar",Green
same,Colour,"[21]; E. coli 260422Y, agar",Green
same,Colour,"[21]; E. coli 260424P, agar",Green
same,Colour,"[21]; E. coli 260425A, agar",Green
same,Colour,"[21]; E. coli 260426F, agar",Green
same,Colour,"[21]; E. coli 260428T, agar",Green
same,Colour,"[21]; E. coli 260431N, agar",Green
same,Colour,"[21]; E. coli 260432E, agar",Green
same,Colour,"[21]; E. coli 260433H, agar",Green
same,Colour,"[21]; E. coli 260434Y, agar",Green
same,Colour,"[21]; E. coli 260435W, agar",Green
same,Colour,"[21]; E. coli 260436P, agar",Green
same,Colour,"[21]; E. coli 260437A, agar",−
same,Colour,"[21]; E. coli 260438F, agar",Green
same,Colour,"[21]; E. coli 260439C, agar",Green
same,Colour,"[21]; E. coli 260440S, agar",Green
same,Colour,"[21]; E. coli 260441G, agar",Green
same,Colour,"[21]; E. coli 260458Y, agar",Green
same,Colour,"[21]; E. coli 260459W, agar",Green
same,Colour,"[21]; E. coli 260463D, agar",Green
same,Colour,"[21]; E. coli 260464G, agar",Green
same,Colour,"[21]; E. coli 260471B, agar",−
same,Colour,"[21]; E. coli 260478N, agar",−
same,Colour,"[21]; E. coli 260479Q, agar",Green
same,Colour,"[21]; E. coli 260480M, agar",Green
same,Colour,"[21]; E. coli 260481J, agar",Green
same,Colour,"[21]; E. coli 260483R, agar",−
same,Colour,"[21]; E. coli 260485D, agar",Green
same,Colour,"[21]; E. coli 260486L, agar",Green
same,Colour,"[21]; E. coli 260492J, agar",Green
same,Colour,"[21]; E. coli 260494B, agar",Green
same,Colour,"[21]; E. coli 260495R, agar",−
same,Colour,"[21]; E. coli 260497D, agar",Green
same,Colour,"[21]; E. coli 260502G, agar",Green
same,Colour,"[21]; E. coli 260503Z, agar",Green
same,Colour,"[21]; E. coli 260504N, agar",Green
same,Colour,"[21]; E. coli 260505Q, agar",−
same,Colour,"[21]; E. coli 260506E, agar",Green
same,Colour,"[21]; E. coli 260508Y, agar",Green
same,Colour,"[21]; E. coli 260509W, agar",Green
same,Colour,"[21]; E. coli 260510R, agar",Green
same,Colour,"[21]; E. coli 260511X, agar",Green
same,Colour,"[21]; E. coli 260514G, agar",−
same,Colour,"[21]; E. coli 260515Z, agar",−
same,Colour,"[21]; E. coli 260521S, agar",Green
same,Colour,"[21]; E. coli 260522Z, agar",Green
same,Colour,"[21]; E. coli 260532S, agar",Green
same,Colour,"[21]; E. coli 260533G, agar",Green
same,Colour,"[21]; E. coli 260536Q, agar",Green
same,Colour,"[21]; E. coli 260537E, agar",−
same,Colour,"[21]; E. coli 260538H, agar",−
same,Colour,"[21]; E. coli 260539Y, agar",Green
same,Colour,"[21]; E. coli 260541R, agar",Green
same,Colour,"[21]; E. coli 260545G, agar",Green
same,Colour,"[21]; E. coli 260547N, agar",Green
same,Colour,"[21]; E. coli 260548Q, agar",Green
same,Colour,"[21]; E. coli 260549E, agar",Green
same,Colour,"[21]; E. coli 260553X, agar",−
same,Colour,"[21]; E. coli 260554D, agar",Green
same,Colour,"[21]; E. coli 260555L, agar",Green
same,Colour,"[21]; E. coli 260563B, agar",Green
same,Colour,"[21]; E. coli 260564R, agar",Green
same,Colour,"[21]; E. coli 260578D, agar",−
same,Colour,"[21]; E. coli 2603121P, agar",−
same,Colour,"E. cloacae; E. cloacae 260329R, agar",−
same,Colour,"E. cloacae; E. cloacae NCTC 11936, agar",−
same,Colour,E. faecium NCTC 7171,−
same,Colour,E. faecalis NCTC 775,−
"COC(=O)C1OC(Oc2cc3ccccc3cc2O)C(O)C(O)C1O [Compound 13, DHN-β-D-glucuronide-6′-methyl ester]",colour after hydrolysis compared with 12a or 12b,[22],weaker
